The values below come from PMC6627609, “Targeting Quorum Sensing: High-Throughput Screening to Identify Novel LsrK Inhibitors” (International Journal of Molecular Sciences, 2019).

The experiment has as its target LsrK (Salmonella typhimurium, UniProt Q8ZKQ6). Put plainly: biochemical. The format is biochemical, S. typhimurium. The following applies: for Inhibition (%): 50 µM.

Usually inhibition stands for the drop in the measured response relative to a control, in per cent. A higher inhibition goes with a strong effect.

Structures are written as SMILES. Where a name gives a salt, the structure may show the parent alone.

Sequence of LsrK (Q8ZKQ6 whole entry): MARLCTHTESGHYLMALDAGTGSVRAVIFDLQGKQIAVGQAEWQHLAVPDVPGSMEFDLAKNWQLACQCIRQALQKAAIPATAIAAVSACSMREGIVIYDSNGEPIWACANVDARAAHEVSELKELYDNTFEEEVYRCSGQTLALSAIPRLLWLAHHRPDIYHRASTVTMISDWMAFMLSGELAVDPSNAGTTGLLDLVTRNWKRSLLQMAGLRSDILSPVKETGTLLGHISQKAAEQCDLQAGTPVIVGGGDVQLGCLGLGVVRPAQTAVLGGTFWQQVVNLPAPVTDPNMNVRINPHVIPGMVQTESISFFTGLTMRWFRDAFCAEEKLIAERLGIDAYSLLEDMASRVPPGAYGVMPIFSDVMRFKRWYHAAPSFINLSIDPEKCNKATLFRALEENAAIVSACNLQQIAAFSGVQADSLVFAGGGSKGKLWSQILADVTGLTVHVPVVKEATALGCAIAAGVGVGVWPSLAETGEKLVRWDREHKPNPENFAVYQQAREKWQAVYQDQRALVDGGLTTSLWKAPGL

On to `CCC(=O)O[C@H]1[C@H](O[C@@H]2[C@@H](C)[C@H](O[C@H]3C[C@@](C)(OC)[C@@H](O)[C@H](C)O3)[C@@H](C)C(=O)O[C@H](CC)[C@@](C)(O)[C@H](O)[C@@H](C)C(=O)[C@H](C)C[C@@]2(C)O)O[C@H](C)C[C@@H]1N(C)C` [ERYTHROMYCIN ESTOLATE], for which testing at 50 µM gave an inhibition of 10%. Same read-out and setting: under `CCOC(=O)CCC(=O)O[C@H]1[C@H](O[C@@H]2[C@@H](C)[C@H](O[C@H]3C[C@@](C)(OC)[C@@H](O)[C@H](C)O3)[C@@H](C)C(=O)O[C@H](CC)[C@@](C)(O)[C@H](O)[C@@H](C)C(=O)[C@H](C)C[C@@]2(C)O)O[C@H](C)C[C@@H]1N(C)C` [ERYTHROMYCIN ETHYLSUCCINATE] stands 1%; under `CC[C@H]1OC(=O)[C@H](C)[C@@H](O[C@H]2C[C@@](C)(OC)[C@@H](O)[C@H](C)O2)[C@H](C)[C@@H](O[C@@H]2O[C@H](C)C[C@H](N(C)C)[C@H]2O)[C@](C)(O)C[C@@H](C)C(=O)[C@H](C)[C@@H](O)[C@]1(C)O` [ERYTHROMYCIN], 0%.

For the compound `O=C([O-])c1ccccc1-c1c2cc(I)c(=O)c(I)c-2oc2c(I)c([O-])c(I)cc12.[Na+].[Na+]` [ERYTHROSINE SODIUM], the “Inhibition (%)” value came to 69. The compound `CN(C)CCC[C@@]1(c2ccc(F)cc2)OCc2cc(C#N)ccc21` [ESCITALOPRAM OXALATE] came in with an inhibition at 50 µM of 1%. The compound `C[C@]12CC[C@@H]3c4ccc(O)cc4CC[C@H]3[C@@H]1CC[C@@H]2OC(=O)CCC1CCCC1` [ESTRADIOL CYPIONATE] had an inhibition at 50 µM of 0%. The same measure, in the same setting: under `COc1ccc2c(c1)CC[C@@H]1[C@@H]2CC[C@]2(C)[C@@H](O)CC[C@@H]12` [ESTRADIOL METHYL ETHER] stands 3%.

Consider `CCCCC(=O)O[C@H]1CC[C@H]2[C@@H]3CCc4cc(O)ccc4[C@H]3CC[C@]12C` [ESTRADIOL VALERATE], for which the inhibition at 50 µM is 3%. With `C[C@]12CCC3c4ccc(OS(=O)(=O)[O-])cc4CCC3C1CC[C@H]2O.[Na+]` (stereo partly shown) [ESTRADIOL-3-SULFATE. SODIUM SALT], the “Inhibition (%)” value came out at 0. Take `CCOc1ccc2nc3cc(N)ccc3c(N)c2c1` [ETHACRIDINE LACTATE]: the inhibition at 50 µM amounted to 1%. The same measure, in the same setting: in the case of `C=C(CC)C(=O)c1ccc(OCC(=O)O)c(Cl)c1Cl` [ETHACRYNIC ACID] it was 85%; in that of `C#C[C@]1(O)CC[C@H]2[C@@H]3CCc4cc(O)ccc4[C@H]3CC[C@@]21C` [ETHINYL ESTRADIOL], 1%; in that of `CCC1(C)CC(=O)NC1=O` (stereo not shown) [ETHOSUXIMIDE], 17%.

On to `CCC(N)C(O)c1ccc(O)c(O)c1` (stereo not shown) [ETHYLNOREPINEPHRINE HYDROCHLORIDE], for which the inhibition at 50 µM came out at 4%. In the case of `CCc1cc(Cl)c(OC)c(C(=O)NC[C@@H]2CCCN2CC)c1O.Cl` [ETICLOPRIDE HYDROCHLORIDE], the “Inhibition (%)” value is recorded as 2.

`CCOC(=O)c1cncn1[C@H](C)c1ccccc1` [ETOMIDATE] displayed an inhibition at 50 µM of 2%. On the same count and under the same terms, under `COc1cc([C@@H]2c3cc4c(cc3[C@@H](O[C@@H]3O[C@@H]5CO[C@@H](C)O[C@H]5[C@H](O)[C@H]3O)[C@H]3COC(=O)[C@H]23)OCO4)cc(OC)c1O` [ETOPOSIDE] stands 1%.

Consider `CC(=O)O[C@H]1CCC2(C)C3=C(CCC2C1(C)C)[C@@]1(C)CC[C@@H](C(C)CCC=C(C)C)[C@]1(C)CC3` (stereo partly shown) [EUPHOL ACETATE], for which the “Inhibition (%)” value came to 1. Same read-out and setting: in the case of `CC(=O)O[C@H]1[C@H]2[C@@H](OC(=O)Cc3ccccc3)[C@@H](C)C[C@]2(OC(C)=O)C(=O)/C(C)=C/[C@@H]2[C@H](CC[C@@]13CO3)C2(C)C` [EUPHORBIASTEROID] it was 1. `C=C1C[C@@H]2[C@H](CC[C@]3(C)C(=O)CC[C@@H]23)[C@@]2(C)C=CC(=O)C=C12` [EXEMESTANE] returned an inhibition at 50 µM of 11%.

Turning to `O=C(O)CCC(=O)c1ccc(-c2ccccc2)cc1` [FENBUFEN], 50 µM produced 2% inhibition.

The compound `CC(NCCC(c1ccccc1)c1ccccc1)c1ccccc1` (stereo not shown) [FENDILINE HYDROCHLORIDE] registered an inhibition at 50 µM of 0%.
